Experiment [1] addresses T1, Trib2-Luciferase (Luc-Trib2) fusion (Homo sapiens, UniProt Q92519).
T1 sequence (Q92519 with tags, fused parts or gaps): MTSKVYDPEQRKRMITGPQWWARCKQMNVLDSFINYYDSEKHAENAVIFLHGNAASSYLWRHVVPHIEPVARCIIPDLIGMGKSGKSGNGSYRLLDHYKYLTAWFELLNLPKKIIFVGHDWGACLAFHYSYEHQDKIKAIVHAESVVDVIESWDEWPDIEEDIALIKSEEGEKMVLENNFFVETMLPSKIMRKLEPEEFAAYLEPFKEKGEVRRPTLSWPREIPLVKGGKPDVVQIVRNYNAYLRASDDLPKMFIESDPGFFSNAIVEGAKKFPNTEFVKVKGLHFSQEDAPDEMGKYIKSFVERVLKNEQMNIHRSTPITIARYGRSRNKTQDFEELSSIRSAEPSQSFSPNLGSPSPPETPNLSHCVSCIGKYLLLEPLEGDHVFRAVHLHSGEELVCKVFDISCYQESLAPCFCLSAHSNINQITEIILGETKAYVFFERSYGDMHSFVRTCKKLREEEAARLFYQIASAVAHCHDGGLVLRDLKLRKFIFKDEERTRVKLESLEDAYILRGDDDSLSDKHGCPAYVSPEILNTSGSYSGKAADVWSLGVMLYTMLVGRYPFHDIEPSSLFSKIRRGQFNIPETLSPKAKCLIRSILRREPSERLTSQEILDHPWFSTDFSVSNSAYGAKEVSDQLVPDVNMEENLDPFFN
The conditions noted are these: for inhibition of Trib2-luciferase activity (in words): HFF-Trib2-Luc cells.

In experiment [2] the target is T1, Trib2-Luciferase (Luc-Trib2) fusion. The experiment is described as follows: cell-based. The settings on record: HFF, read-out: Luciferase activity (%).
The mark [3] stands for this setting: 10 μM, 24 hours, Trib2-Luciferase fusion construct-transfected HFF cells, […].

“Also recorded” adds a separate entry of the source. Where two headings read alike, the source gives them in different places.

With `Nc1nc2c(ncn2CCC(CO)CO)c(=O)[nH]1` [Penciclovir], the “inhibition of Trib2-luciferase activity (in words)” value (“inhibition” below) in experiment [1] (10 μM, 24 hours) is listed as “not effective”. Also, the activity at 10 µM in experiment [2] is 97%.
On to Niraparib tosylate, for which the “Luciferase activity (%)” value in experiment [1] (10 µM) was determined as 93%.
As to `Nc1ccc(O)c(C(=O)O)c1` [5-Aminosalicyclic acid], in experiment [1] (setting [3]), the “Luciferase activity (%)” value amounted to 84%.
Take `COC(=O)[C@H]1[C@H]2C[C@@H]3c4[nH]c5cc(OC)ccc5c4CCN3C[C@H]2C[C@@H](OC(=O)c2cc(OC)c(OC)c(OC)c2)[C@@H]1OC` [Resperine]: the “Luciferase activity (%)” value in experiment [1] (10 µM) was 91%.
The same measure, in the same setting: in the case of `CC[C@H]1[C@@H]2C[C@H]3[C@@H]4N(C)c5ccccc5[C@]45C[C@@H]([C@@H]2[C@H]5O)N3[C@@H]1O` [Ajamaline] it was 93%; in that of `NS(=O)(=O)c1cc(Cl)c(Cl)c(S(N)(=O)=O)c1` [Dichlorphrnamide], 100%.
For the compound `CN1CCC(=C2c3ccccc3CCn3c(C=O)cnc32)CC1` [Alcaftadine], the activity at 10 µM in experiment [2] came to 100%.
Regarding `CCCc1nc(C(C)(C)O)c(C(=O)O)n1Cc1ccc(-c2ccccc2-c2nnn[nH]2)cc1` [Olmesartan], in experiment [2], the activity at 10 µM worked out at 80%.
The same measure, in the same setting: in the case of `CC1=C(C(=O)OCCN(Cc2ccccc2)c2ccccc2)C(c2cccc([N+](=O)[O-])c2)C(P2(=O)OCC(C)(C)CO2)=C(C)N1` (stereo not shown) [Efonidipine] it was 98%.
The same measure, in the same setting: under `CN1C(=O)COc2c(C(=O)NC3CN4CCC3CC4)cc(Cl)cc21` (stereo not shown) [Azasetron] stands 100%; under `CC(/C=C1\SC(=S)N(CC(=O)O)C1=O)=C\c1ccccc1` [Epalrestat], 53%; under `Cc1ccccc1C(=O)Nc1ccc(C(=O)N2CCCC(N(C)C)c3ccccc32)cc1` (stereo not shown) [Mozavaptan], 86%.
Same read-out and setting: in the case of `Cc1nnc(NS(=O)(=O)c2ccc(N)cc2)s1` [Sulfamethizole] it was 94%; in that of `Cc1cccn2c(=O)c(-c3nnn[nH]3)cnc12` [Pemirolast], 88%.
Take `CCCOc1ccc(S(=O)(=O)NCCC2CCCN2C)cc1-c1nc2c(CCC)nn(C)c2c(=O)[nH]1` (stereo not shown) [Udenafil]: the activity at 10 µM in experiment [2] was 100%.
The same measure, in the same setting: under `C=CCc1ccccc1OCC(O)CNC(C)C` (stereo not shown) [Alprenolol] stands 91%.
As for Temsirolmus, in experiment [1] (10 µM), the “Luciferase activity (%)” value was 94%.
Take `CN(C)[C@@H](CCOc1cccc2ccccc12)c1ccccc1` [Dapoxetine]: the activity at 10 µM in experiment [2] came to 88%.
On the same count and under the same terms, in the case of `C[C@]12CC[C@@H]3c4ccc(O)cc4CC[C@H]3[C@@H]1CCC2=O` [Estrone] it was 82%; in that of `CCOC(=O)CC(SP(=S)(OC)OC)C(=O)OCC` (stereo not shown) [Malathion], 91%; in that of `CC1(C)CCC(CN2CCN(c3ccc(C(=O)NS(=O)(=O)c4ccc(NCC5CCOCC5)c([N+](=O)[O-])c4)c(Oc4cnc5[nH]ccc5c4)c3)CC2)=C(c2ccc(Cl)cc2)C1` [Venetoclax], 184%.
Same read-out and setting: under `CC[C@]12CCCN3CCc4c(n(c5ccccc45)[C@@](O)(C(=O)OC)C1)[C@@H]32` [Vincamine] stands 80%; under `CC[C@@H](CO)NCCN[C@@H](CC)CO` [Ethambutol], 98%.
For `CC(=O)NCCCCCC(=O)O` [6-Acetamidohexanoic], the “Luciferase activity (%)” value in experiment [1] (setting [3]) is given as 100%.
In the case of `C=C[C@]1(C)C[C@@H](OC(=O)CSC(C)(C)CNC(=O)[C@H](N)C(C)C)[C@]2(C)[C@H](C)CC[C@]3(CCC(=O)[C@H]32)[C@@H](C)[C@@H]1O` [Valnemulin], in experiment [2], the activity at 10 µM was found to be 83%.
Same read-out and setting: in the case of `Cc1cc(-c2ccccc2)nnc1NCCN1CCOCC1` [Minaprine] it was 79%; in that of `CCCCc1nc(C)c(CC(=S)N(C)C)c(=O)n1Cc1ccc(-c2ccccc2-c2nnn[nH]2)cc1` [Fimasartan], 88%.
Consider `CC(C)C(=O)c1c(C(C)C)nn2ccccc12` [Ibudilast], for which the activity at 10 µM in experiment [2] was 85%.
On to `C[C@@H]1CCO[C@H]2Cn3cc(C(=O)NCc4ccc(F)cc4F)c(=O)c(O)c3C(=O)N12` [Dolutegravir], for which the “inhibition” value in experiment [1] (10 μM, 24 hours) is recorded as “completely ineffective; also recorded: not effective”. In addition, the activity at 10 µM in experiment [2] worked out at 100%.
Consider `C[C@]12C=CC(=O)C=C1CC[C@H]1[C@@H]3C[C@@H](O)[C@](O)(C(=O)CO)[C@@]3(C)C[C@H](O)[C@@]12F` [Triamcinolone], for which the activity at 10 µM in experiment [2] is 72%.
The same measure, in the same setting: under `N=C(N)NC(=O)Cc1c(Cl)cccc1Cl` [Guanfacine] stands 100%; under `COc1cc(N)c(Cl)cc1C(=O)NC1CCN(Cc2ccccc2)CC1` [Clebopride], 100%; under `CN1C[C@@H]2C[C@H]1CN2c1cc2c(cc1F)c(=O)c(C(=O)O)cn2C1CC1` [Danofloxacin], 81%.
For the compound `C[C@@H](CN1CC(=O)NC(=O)C1)N1CC(=O)NC(=O)C1` [Dexrazoxane], in experiment [2], the activity at 10 µM is 100%.
For `c1cc(CN2CCCNCCNCCCNCC2)ccc1CN1CCCNCCNCCCNCC1` [Plerixafor], in experiment [2], the activity at 10 µM turned out to be 93%.
The same measure, in the same setting: under `COc1cc([C@@H]2c3cc4c(cc3[C@@H](O[C@@H]3O[C@@H]5CO[C@@H](c6cccs6)O[C@H]5[C@H](O)[C@H]3O)[C@H]3COC(=O)[C@H]23)OCO4)cc(OC)c1O` [Teniposide] stands 70%.
On the same count and under the same terms, under `[H]/N=C(/N)NS(=O)(=O)c1ccc(N)cc1` [Sulfaguanidine] stands 84%.
Same read-out and setting: under `O=C(CCCN1CC=C(n2c(=O)[nH]c3ccccc32)CC1)c1ccc(F)cc1` [Droperidol] stands 100%.
Turning to `C[N+](C)(C)C[C@H](O)CC(=O)[O-]` [Levocarnitine], in experiment [2], the activity at 10 µM amounted to 84%.
The same measure, in the same setting: in the case of `Cc1cnc(NC(=O)C2=C(O)c3ccccc3S(=O)(=O)N2C)s1` [Meloxicam] it was 100%.
With `CC(C)CN(C[C@@H](O)[C@H](Cc1ccccc1)NC(=O)O[C@H]1CO[C@H]2OCC[C@H]21)S(=O)(=O)c1ccc(N)cc1` [Darunavir], the “inhibition” value in experiment [1] (10 μM, 24 hours) was “completely ineffective; also recorded: not effective”. In experiment [2], the activity at 10 µM amounted to 93%.
On to `CCN(CC)C(=O)C1(c2ccccc2)CC1CN` (stereo not shown) [Milnacipran], for which the activity at 10 µM in experiment [2] is 85%.
Still for that read-out and setting: under `CC(=O)OC(C)C[N+](C)(C)C` (stereo not shown) [Methacholine] stands 99%; under `COC(=O)C1=C(C#N)NC(C)=C(C(=O)OC(C)C)C1c1cccc([N+](=O)[O-])c1` (stereo not shown) [Nilvadipine], 89%; under `Nc1nc(N)c2nc(-c3ccccc3)c(N)nc2n1` [Triamterene], 100%.
Same read-out and setting: under `CC[C@H]1OC(=O)[C@H](C)[C@@H](O[C@H]2C[C@@](C)(OC)[C@@H](O)[C@H](C)O2)[C@H](C)[C@@H](O[C@@H]2O[C@H](C)C[C@H](N(C)C)[C@H]2O)[C@](C)(OC)C[C@@H](C)C(=O)[C@H](C)[C@@H](O)[C@]1(C)O` [Clarithromycin] stands 97%.
On the same count and under the same terms, under `O=C(Nc1ccc([N+](=O)[O-])cc1Cl)c1cc(Cl)ccc1O` [Niclosamide] stands 62%.
Consider `O=C1CN2Cc3c(ccc(Cl)c3Cl)N=C2N1` [Anagrelide], for which the activity at 10 µM in experiment [2] stood at 92%.
With `CC(C)(C)c1nc(-c2cccc(NS(=O)(=O)c3c(F)cccc3F)c2F)c(-c2ccnc(N)n2)s1` [Dabrafenib], the activity at 10 µM in experiment [2] worked out at 72%.
